Test results: ChEMBL document CHEMBL1140567, “2-Aryl benzimidazoles featuring alkyl-linked pendant alcohols and amines as inhibitors of checkpoint kinase Chk2” (Bioorg Med Chem Lett, 2007)
Converted amounts (≈) assume the structure as drawn.

Legend:
[1] = Solubility in stimulated intestinal fluid at pH 7 after 3 days; assay type: physicochemical; conditions: simulated intestinal fluid
[2] = Solubility in stimulated gastric fluid at pH 2 umol after 3 days; assay type: physicochemical; conditions: simulated gastric fluid

solubility at 72 h [1] [µM] | solubility at 72 h [2] [µM] | Compound
5 (≈ 2.27 µg/mL) | 110 (≈ 50 µg/mL) | NC(=O)c1ccc2[nH]c(-c3ccc(OCCC4CCN(Cc5ccccc5)CC4)cc3)nc2c1
15 (≈ 7.85 µg/mL) | 13 (≈ 6.81 µg/mL) | NC(=O)c1ccc2[nH]c(-c3ccc(OCCC4CCN(Cc5ccc(Cl)c(Cl)c5)CC4)cc3)nc2c1
115 (≈ 56.2 µg/mL) | > 400 | NC(=O)c1ccc2[nH]c(-c3ccc(OCCC4CCCCN4Cc4ccc(Cl)cc4)cc3)nc2c1 (stereo not given)
97 (≈ 45.5 µg/mL) | > 400 | Cc1ccc(CN2CCCCC2CCOc2ccc(-c3nc4cc(C(N)=O)ccc4[nH]3)cc2)cc1 (stereo not given)
< 1 | > 400 | COc1ccc(CN2CCC(CCOc3ccc(-c4nc5cc(C(N)=O)ccc5[nH]4)cc3)CC2)cc1
3 (≈ 1.41 µg/mL) | 84 (≈ 39.4 µg/mL) | Cc1ccc(CN2CCC(CCOc3ccc(-c4nc5cc(C(N)=O)ccc5[nH]4)cc3)CC2)cc1
84 (≈ 40.7 µg/mL) | > 400 | COc1ccc(CN2CCCCC2CCOc2ccc(-c3nc4cc(C(N)=O)ccc4[nH]3)cc2)cc1 (stereo not given)
2 (≈ 0.978 µg/mL) | 179 (≈ 87.5 µg/mL) | NC(=O)c1ccc2[nH]c(-c3ccc(OCCC4CCN(Cc5ccc(Cl)cc5)CC4)cc3)nc2c1
> 400 | > 400 | NC(=O)c1ccc2[nH]c(-c3ccc(OCC4CCN(Cc5ccccc5)CC4)cc3)nc2c1

The remaining lines, values behind:

Compound | solubility at 72 h [1] [µM] | solubility at 72 h [2] [µM]
NC(=O)c1ccc2[nH]c(-c3ccc(OCC4CCNCC4)cc3)nc2c1 | > 400 | > 400
NC(=O)c1ccc2[nH]c(-c3ccc(OC4CCCNC4)cc3)nc2c1 (stereo not given) | > 400 | > 400
CC(=O)N1CCC(CCOc2ccc(-c3nc4cc(C(N)=O)ccc4[nH]3)cc2)CC1 | 2 (≈ 0.813 µg/mL) | 87 (≈ 35.4 µg/mL)
CN(C)CCCOc1ccc(-c2nc3cc(C(N)=O)ccc3[nH]2)cc1 | > 400 | > 400
NC(=O)c1ccc2[nH]c(-c3ccc(OCCC4CCCCN4Cc4ccccc4)cc3)nc2c1 (stereo not given) | 155 (≈ 70.5 µg/mL) | > 400
NC(=O)c1ccc2[nH]c(-c3ccc(OCCC4CCCCN4C(=O)c4ccccc4)cc3)nc2c1 (stereo not given) | 18 (≈ 8.43 µg/mL) | 28 (≈ 13.1 µg/mL)
NC(=O)c1ccc2[nH]c(-c3ccc(OCCC4CCN(C(=O)c5ccccc5)CC4)cc3)nc2c1 | 3 (≈ 1.41 µg/mL) | 3 (≈ 1.41 µg/mL)
CC(=O)N1CCCCC1CCOc1ccc(-c2nc3cc(C(N)=O)ccc3[nH]2)cc1 (stereo not given) | 193 (≈ 78.5 µg/mL) | > 400
NC(=O)c1ccc2[nH]c(-c3ccc(OCCCN4CCCCC4)cc3)nc2c1 | > 400 | > 400
NC(=O)c1ccc2[nH]c(-c3ccc(OCC4CCCN(Cc5ccccc5)C4)cc3)nc2c1 (stereo not given) | 267 (≈ 118 µg/mL) | > 400
NC(=O)c1ccc2[nH]c(-c3ccc(OCCC4CCCCN4Cc4ccc(Cl)c(Cl)c4)cc3)nc2c1 (stereo not given) | 229 (≈ 120 µg/mL) | 39 (≈ 20.4 µg/mL)
NC(=O)c1ccc2[nH]c(-c3ccc(OC4CCC(O)C4)cc3)nc2c1 (stereo not given) | 139 (≈ 46.9 µg/mL) | > 400
CN1CCC(Oc2ccc(-c3nc4cc(C(N)=O)ccc4[nH]3)cc2)CC1 | > 400 | > 400
NC(=O)c1ccc2[nH]c(-c3ccc(OCCN4CCCCC4)cc3)nc2c1 | > 400 | > 400
NC(=O)c1ccc2[nH]c(-c3ccc(OCCCO)cc3)nc2c1 | 7 (≈ 2.18 µg/mL) | 185 (≈ 57.6 µg/mL)
NC(=O)c1ccc2[nH]c(-c3ccc(OCCO)cc3)nc2c1 | > 400 | > 400
